Source: the NIST ThermoML archive (doi:10.1021/je800998u)

Conditions: for molar entropy / mass density: 101.33 kPa; for molar entropy: Small (less than 1 g) adiabatic calorimetry; for mass density: Pycnometric method; for vapor or sublimation pressure: Ebulliometric method (Recirculating still); for Triple point temperature: Adiabatic calorimetry

CC(C)COCC(C)C [diisobutyl ether]
Conditions | mass density [kg/m3] | molar entropy [J/K/mol] | vapor or sublimation pressure [kPa]
10 K, Crystal 2 | – | 0.4387 | –
15 K, Crystal 2 | – | 2.36 | –
20 K, Crystal 2 | – | 5.506 | –
25 K, Crystal 2 | – | 9.633 | –
30 K, Crystal 2 | – | 14.45 | –
35 K, Crystal 2 | – | 19.69 | –
40 K, Crystal 2 | – | 25.17 | –
45 K, Crystal 2 | – | 30.79 | –
50 K, Crystal 2 | – | 36.49 | –
55 K, Crystal 2 | – | 42.24 | –
60 K, Crystal 2 | – | 48.03 | –
65 K, Crystal 2 | – | 53.84 | –
70 K, Crystal 2 | – | 59.61 | –
75 K, Crystal 2 | – | 65.3 | –
80 K, Crystal 2 | – | 70.92 | –
85 K, Crystal 2 | – | 76.51 | –
90 K, Crystal 2 | – | 82.09 | –
95 K, Crystal 2 | – | 87.65 | –
100 K, Crystal 2 | – | 93.17 | –
110 K, Crystal 2 | – | 104 | –
120 K, Crystal 2 | – | 114.8 | –
130 K, Crystal 2 | – | 125.4 | –
140 K, Crystal 2 | – | 135.9 | –
150 K, Crystal 2 | – | 146.4 | –
160 K, Crystal 2 | – | 157.1 | –
170.71 K, Crystal 1 | – | 179.1 | –
170.71 K, Crystal 2 | – | 168.6 | –
180 K, Crystal 1 | – | 188.8 | –
190.4 K, Crystal 1 | – | 200.4 | –
190.4 K, Liquid | – | 259.9 | –
200 K, Liquid | – | 272.1 | –
210 K, Liquid | – | 284 | –
220 K, Liquid | – | 295.5 | –
230 K, Liquid | – | 306.6 | –
240 K, Liquid | – | 317.3 | –
250 K, Liquid | – | 327.8 | –
260 K, Liquid | – | 338 | –
270 K, Liquid | – | 348 | –
280 K, Liquid | – | 357.7 | –
290 K, Liquid | – | 367.2 | –
298.06 K, Liquid | 748.62 | – | –
298.07 K, Liquid | 748.49 | – | –
298.09 K, Liquid | 748.45 | – | –
298.14 K, Liquid | 748.69 | – | –
298.15 K, Liquid | – | 374.8 | –
298.18 K, Liquid | 748.69 | – | –
298.22 K, Liquid | 748.09 | – | –
300 K, Liquid | – | 376.5 | –
302.68 K, Liquid | 743.72 | – | –
302.73 K, Liquid | 744.19 | – | –
302.79 K, Liquid | 743.67 | – | –
302.81 K, Liquid | 744.14 | – | –
302.83 K, Liquid | 743.5 | – | –
302.86 K, Liquid | 743.47 | – | –
310 K, Liquid | – | 385.6 | –
312.72 K, Liquid | 733.67 | – | –
312.95 K, Liquid | 733.53 | – | –
312.99 K, Liquid | 733.64 | – | –
313.02 K, Liquid | 733.56 | – | –
313.03 K, Liquid | 734 | – | –
320 K, Liquid | – | 394.6 | –
330 K, Liquid | – | 403.5 | –
330.9 K, Liquid | – | – | 10.75
336.08 K, Liquid | – | – | 13.37
340 K, Liquid | – | 412.1 | –
341.66 K, Liquid | – | – | 16.76
347.21 K, Liquid | – | – | 20.79
350 K, Liquid | – | 420.8 | –
352.09 K, Liquid | – | – | 24.97
357.89 K, Liquid | – | – | 30.79
360 K, Liquid | – | 429.3 | –
363.27 K, Liquid | – | – | 37.12
369.46 K, Liquid | – | – | 45.66
370 K, Liquid | – | 437.7 | –
375.78 K, Liquid | – | – | 55.91
381.77 K, Liquid | – | – | 67.26
388.15 K, Liquid | – | – | 81.3
392.78 K, Liquid | – | – | 92.88
393.58 K, Liquid | – | – | 95
394.37 K, Liquid | – | – | 97.12
395.14 K, Liquid | – | – | 99.28

Conditions | Triple point temperature [K]
Crystal 1 | 190.4
Crystal 2 | 170.71
